Reference: patent US12528790B2, “Amide derivative having antiviral activity” (Shionogi & Co., Ltd., priority 2020, dated 2026)
Read-outs that look alike come from different tables or passages of the source.

How the values were obtained:
RSV A2 strain = assay: In vitro CPE (CytoPathic Effect) inhibition effect evaluation test, RSV type A; assay type: cell-based; details: inhibitory effect against RSV type A (RSV A2 strain), HEp-2 cells, CPE inhibition, read-out: EC50
Procedure, shortened: (§1)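 HEp-2 cells (2.4×10^5 cells/mL, 2% FBS E-MEM) were infected with RSV alongside 3-fold compound dilutions and incubated at 37 °C, 4 days for A2 and 5 days for B Wash/18537. Viable cells quantified by CellTiter-Glo 2.0 luminescence; EC50 by nonlinear regression as 50% CPE inhibition.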

[1] = tested on: RSV B (Wash/18537 strain); assay: In vitro CPE (CytoPathic Effect) inhibition effect evaluation test, RSV type B; assay type: cell-based; details: inhibitory effect against RSV type B, CPE inhibition, read-out: EC50
Procedure, shortened: as §1

[2] = human respiratory syncytial virus

Structure (SMILES)	EC50 (RSV A2 strain; [2])	EC50 [1, 2]	EC50 (RSV A2 strain)	EC50 [1]
O=C(NC1(C(=O)O)C2CC3CC(C2)CC1C3)c1cnc(N2CC3(CCCCC3)c3cc(C(=O)N4CCN(c5ncc(F)cn5)CC4)ccc32)nc1C(F)(F)F (centres unmarked) [Compound I-504]	< 0.01 µM	< 0.01 µM		
O=C(NC1(C(=O)O)C2CC3CC(C2)CC1C3)c1cnc(N2CC3(CCCCC3)c3cc(C(=O)N4CCN(CC(F)(F)F)CC4)ccc32)nc1C(F)(F)F (centres unmarked) [Compound I-505]	< 0.01 µM	< 0.01 µM		
CC(F)(F)c1nc(N2CC3(CCOCC3)c3cc(O[C@H]4CC[C@H](N5CC(F)(F)C5)CC4)ccc32)ncc1C(=O)NC1(C(=O)O)C2CC3CC(C2)CC1C3 (some centres unmarked) [Compound I-506]	< 0.01 µM	< 0.01 µM		
COC[C@@H](C)n1cc(-c2ncc(C(=O)NC3(C(=O)O)C4CC5CC(C4)CC3C5)c(C(F)(F)F)n2)c2ccc(O[C@H]3CC[C@H](N4CC(F)(F)C4)CC3)cc21 (some centres unmarked) [Compound I-507]	< 0.01 µM	< 0.01 µM		
COC[C@H](C)n1cc(-c2ncc(C(=O)NC3(C(=O)O)C4CC5CC(C4)CC3C5)c(C(F)(F)F)n2)c2ccc(O[C@H]3CC[C@H](N4CC(F)(F)C4)CC3)cc21 (some centres unmarked) [Compound I-508]	< 0.01 µM	< 0.01 µM		
O=C(NC1(C(=O)O)C2CC3CC(C2)CC1C3)c1ccc(-c2cn(C3CCC(F)(F)CC3)c3cc(OC4CCN(CC(F)(F)F)CC4)ccc23)nc1C(F)(F)F (centres unmarked) [Compound I-511]	< 0.01 µM	0.01 to 0.1 µM		
CC(F)(F)CN1CCC(Oc2ccc3c(-c4ccc(C(=O)NC5(C(=O)O)C6CC7CC(C6)CC5C7)c(C(F)(F)F)n4)cn(C4CCC(F)(F)CC4)c3c2)CC1 (centres unmarked) [Compound I-512]	< 0.01 µM	0.01 to 0.1 µM		
O=C(NC1(C(=O)O)C2CC3CC(C2)CC1C3)c1ccc(-c2cn(C3CC3)c3cc(O[C@H]4CC[C@H](N5CC(F)(F)C5)CC4)ccc23)nc1C(F)(F)F (some centres unmarked) [Compound I-513]	< 0.01 µM	< 0.01 µM		
O=C(NC1(C(=O)O)C2CC3CC(C2)CC1C3)c1ccc(-c2cn(C3CCC(F)(F)CC3)c3cc(O[C@H]4CC[C@@H](N5CC(F)(F)C5)CC4)ccc23)nc1C(F)(F)F (some centres unmarked) [Compound I-514]	< 0.01 µM	0.01 to 0.1 µM		
O=C(NC1(C(=O)O)C2CC3CC(C2)CC1C3)c1cnc(N2CC3(CCCCC3)c3cc(OC4CCN(CC(F)(F)F)C4)ccc32)nc1C(F)(F)F (centres unmarked) [Compound I-517]	< 0.01 µM	0.01 to 0.1 µM		
O=C(NC1(C(=O)O)C2CC3CC(C2)CC1C3)c1cnc(N2CC3(CCCCC3)c3cc(O[C@@H]4CCN(CC(F)(F)F)C4)ccc32)nc1C(F)(F)F (some centres unmarked) [Compound I-518]	< 0.01 µM	< 0.01 µM		
O=C(NC1(C(=O)O)C2CC3CC(C2)CC1C3)c1cnc(N2CC3(CCCCC3)c3cc(OC4CCN(c5ncco5)CC4)ccc32)nc1C(F)(F)F (centres unmarked) [Compound I-519]	< 0.01 µM	< 0.01 µM		
N#Cc1cnc(N2CCC(Oc3ccc4c(c3)C3(CCCCC3)CN4c3ncc(C(=O)NC4(C(=O)O)C5CC6CC(C5)CC4C6)c(C(F)(F)F)n3)CC2)nc1 (centres unmarked) [Compound I-520]	< 0.01 µM	< 0.01 µM		
N#CCN1CCC(Oc2ccc3c(c2)C2(CCCCC2)CN3c2ncc(C(=O)NC3(C(=O)O)C4CC5CC(C4)CC3C5)c(C(F)(F)F)n2)CC1 (centres unmarked) [Compound I-521]	< 0.01 µM	0.01 to 0.1 µM		
COc1cnc(N2CCC(Oc3ccc4c(c3)C3(CCCCC3)CN4c3ncc(C(=O)NC4(C(=O)O)C5CC6CC(C5)CC4C6)c(C(F)(F)F)n3)CC2)nc1 (centres unmarked) [Compound I-522]	< 0.01 µM	< 0.01 µM		
O=C(NC1(C(=O)O)C2CC3CC(C2)CC1C3)c1cnc(N2CC3(CCCCC3)c3cc(OC4CCN(c5cnccn5)CC4)ccc32)nc1C(F)(F)F (centres unmarked) [Compound I-523]	< 0.01 µM	< 0.01 µM		
O=C(NC1(C(=O)O)C2CC3CC(C2)CC1C3)c1cnc(N2CC3(CCCCC3)c3cc(O[C@H]4CCN(c5ncc(F)cn5)C4)ccc32)nc1C(F)(F)F (some centres unmarked) [Compound I-524]	< 0.01 µM	0.1 to 5 µM		
O=C(NC1(C(=O)O)C2CC3CC(C2)CC1C3)c1cnc(N2CC3(CCCCC3)c3cc(O[C@@H]4CCN(c5ncc(F)cn5)C4)ccc32)nc1C(F)(F)F (some centres unmarked) [Compound I-525]	< 0.01 µM	< 0.01 µM		
CC(F)(F)c1nc(N2CC3(CCOCC3)c3cc(OC4CCN(CC(F)(F)F)CC4)ncc32)ncc1C(=O)NC1(C(=O)O)C2CC3CC(C2)CC1C3 (centres unmarked) [Compound I-526]	< 0.01 µM	< 0.01 µM		
CC(F)(F)c1nc(N2CC3(CCOCC3)c3cc(OC4CCC5(CC4)COC5)ccc32)ncc1C(=O)NC1(C(=O)O)C2CC3CC(C2)CC1C3 (centres unmarked) [Compound I-527]	< 0.01 µM	< 0.01 µM		
CC(F)(F)c1nc(N2CC3(CCOCC3)c3cc(OC4CCN(CC#N)CC4)ccc32)ncc1C(=O)NC1(C(=O)O)C2CC3CC(C2)CC1C3 (centres unmarked) [Compound I-528]	< 0.01 µM	0.1 to 5 µM		
CC(F)(F)c1nc(N2CC3(CCOCC3)c3cc(OC4CCN(CCC(F)(F)F)CC4)ccc32)ncc1C(=O)NC1(C(=O)O)C2CC3CC(C2)CC1C3 (centres unmarked) [Compound I-529]	< 0.01 µM	< 0.01 µM		

Structure (SMILES)	EC50 (RSV A2 strain; [2])	EC50 [1, 2]	EC50 (RSV A2 strain)	EC50 [1]
CC(F)(F)c1nc(-c2cn(C3CC3)c3cc(O[C@H]4CC[C@H](N5CC(F)(F)C5)CC4)ccc23)ncc1C(=O)NC1(C(=O)O)C2CC3CC(C2)CC1C3 (some centres unmarked) [Compound I-530]	< 0.01 µM	< 0.01 µM		
O=C(NC1(C(=O)O)C2CC3CC(C2)CC1C3)c1cnc(-c2cn(C3CC4(CC4)C3)c3cc(O[C@H]4CC[C@H](N5CC(F)(F)C5)CC4)ccc23)nc1C(F)(F)F (some centres unmarked) [Compound I-531]	< 0.01 µM	< 0.01 µM		
CC(F)(F)c1nc(N2CC3(CCOCC3)c3cc(OC4CCN(CC5COC5)CC4)ccc32)ncc1C(=O)NC1(C(=O)O)C2CC3CC(C2)CC1C3 (centres unmarked) [Compound I-532]	< 0.01 µM	0.01 to 0.1 µM		
CC(F)(F)c1nc(N2CC3(CCOCC3)c3cc(OC4CCN(CC5CC(F)(F)C5)CC4)ccc32)ncc1C(=O)NC1(C(=O)O)C2CC3CC(C2)CC1C3 (centres unmarked) [Compound I-533]	< 0.01 µM	< 0.01 µM		
Cc1nnc(N2CCC(Oc3ccc4c(c3)C3(CCCCC3)CN4c3ncc(C(=O)NC4(C(=O)O)C5CC6CC(C5)CC4C6)c(C(F)(F)F)n3)CC2)o1 (centres unmarked) [Compound I-534]	< 0.01 µM	< 0.01 µM		
CC(F)(F)c1nc(N2CC3(CCCCC3)c3cc(OC4CCN(c5nnc(C(F)(F)F)s5)CC4)ccc32)ncc1C(=O)NC1(C(=O)O)C2CC3CC(C2)CC1C3 (centres unmarked) [Compound I-535]	< 0.01 µM	0.01 to 0.1 µM		
CC(F)(F)c1nc(N2CC3(CCCCC3)c3cc(OC4CCN(c5nc(C(F)(F)F)ns5)CC4)ccc32)ncc1C(=O)NC1(C(=O)O)C2CC3CC(C2)CC1C3 (centres unmarked) [Compound I-536]	< 0.01 µM	0.01 to 0.1 µM		
COc1cnc(N2CCC(Oc3ccc4c(c3)C3(CCCCC3)CN4c3ncc(C(=O)NC4(C(=O)O)C5CC6CC(C5)CC4C6)c(C(F)(F)F)n3)CC2)cn1 (centres unmarked) [Compound I-537]	< 0.01 µM	0.01 to 0.1 µM		
CC(F)(F)c1nc(N2CC3(CCOCC3)c3cc(OC4CCC(N5CCC(F)(F)C5)CC4)ccc32)ncc1C(=O)NC1(C(=O)O)C2CC3CC(C2)CC1C3 (centres unmarked) [Compound I-538]			< 0.01 µM	< 0.01 µM
CC(F)(F)c1nc(N2CC3(CCCCC3)c3cc(OC4CCC(N5CCC(F)(F)C5)CC4)ccc32)ncc1C(=O)NC1(C(=O)O)C2CC3CC(C2)CC1C3 (centres unmarked) [Compound I-539]			< 0.01 µM	0.01 to 0.1 µM
CC(F)(F)c1nc(N2CC3(CCCCC3)c3cc(OC4CCC(N5CCC(F)(F)C5)CC4)ccc32)ncc1C(=O)NC1(C(=O)O)C2CC3CC(C2)CC1C3 (centres unmarked) [Compound I-540]			< 0.01 µM	0.01 to 0.1 µM
CC(F)(F)c1nc(N2CC3(CCOCC3)c3cc(OC4CCC(N5CCC(F)(F)C5)CC4)ccc32)ncc1C(=O)NC1(C(=O)O)C2CC3CC(C2)CC1C3 (centres unmarked) [Compound I-541]			< 0.01 µM	< 0.01 µM
CC(F)(F)c1nc(N2CC3(CCOCC3)c3cc(OC4CN(c5ncc(F)cn5)C4)ccc32)ncc1C(=O)NC1(C(=O)O)C2CC3CC(C2)CC1C3 (centres unmarked) [Compound I-542]	< 0.01 µM	< 0.01 µM		
O=C(NC1(C(=O)O)C2CC3CC(C2)CC1C3)c1cnc(-c2cn(C3CC3)c3cc(O[C@H]4CC[C@@H](N5CC(F)(F)C5)CC4)ccc23)nc1C(F)(F)F (some centres unmarked) [Compound I-543]	< 0.01 µM	< 0.01 µM		
CC(F)(F)CN1CCC(Oc2ccc3c(-c4ncc(C(=O)NC5(C(=O)O)C6CC7CC(C6)CC5C7)c(C(F)(F)F)n4)cn(C4CC4)c3c2)CC1 (centres unmarked) [Compound I-544]	< 0.01 µM	0.01 to 0.1 µM		
O=C(NC1(C(=O)O)C2CC3CC(C2)CC1C3)c1cnc(-c2cn(C3CCC(F)(F)CC3)c3cc(O[C@H]4CC[C@H](N5CC(F)(F)C5)CC4)ccc23)nc1C(F)(F)F (some centres unmarked) [Compound I-545]	< 0.01 µM	< 0.01 µM		
CC(F)(F)c1nc(-c2cn(C3CCC(F)(F)CC3)c3cc(O[C@H]4CC[C@@H](N5CC(F)(F)C5)CC4)ccc23)ncc1C(=O)NC1(C(=O)O)C2CC3CC(C2)CC1C3 (some centres unmarked) [Compound I-546]	< 0.01 µM	< 0.01 µM		
CC(F)(F)c1nc(-c2cn(C3CCOCC3)c3cc(O[C@H]4CC[C@@H](N5CC(F)(F)C5)CC4)ccc23)ncc1C(=O)NC1(C(=O)O)C2CC3CC(C2)CC1C3 (some centres unmarked) [Compound I-547]	< 0.01 µM	< 0.01 µM		
CC(F)(F)CN1CCC(Oc2ccc3c(c2)C2(CCOCC2)CN3c2ncc(C(=O)NC3(C(=O)O)C4CC5CC(C4)CC3C5)c(C(C)(F)F)n2)CC1 (centres unmarked) [Compound I-548]	< 0.01 µM	< 0.01 µM		
CC(F)(F)c1nc(N2CC3(CCOCC3)c3cc(OC4CCC5(CC4)CN(CC(F)(F)F)C5)ccc32)ncc1C(=O)NC1(C(=O)O)C2CC3CC(C2)CC1C3 (centres unmarked) [Compound I-549]	< 0.01 µM	< 0.01 µM		
CC(F)(F)c1nc(N2CC3(CCCCC3)c3cc(OC4CCC5(CC4)CN(CC(F)(F)F)C5)ccc32)ncc1C(=O)NC1(C(=O)O)C2CC3CC(C2)CC1C3 (centres unmarked) [Compound I-550]	< 0.01 µM	0.01 to 0.1 µM		
